From the NIST ThermoML archive (doi:10.1016/j.jct.2017.06.020)

Assays:
[1] = refractive index (Na D-line) (dimensionless); xn = mol fraction of the nth substance listed; settings: 298.15 K, 101.3 kPa, Liquid, Standard Abbe refractometry
[2] = relative permittivity at various frequencies (dimensionless); xn = mol fraction of the nth substance listed; settings: 298.15 K, 101.3 kPa, Liquid, Frequency=0.01 MHz, Coaxial cylinder capacitor
[3] = 298.15 K; 101.3 kPa; Liquid; Vibrating tube method
[4] = refractive index (Na D-line) (dimensionless); settings: 298.15 K; 101.3 kPa; Liquid; Standard Abbe refractometry
[5] = relative permittivity at various frequencies (dimensionless); settings: 298.15 K; 101.3 kPa; Liquid; Frequency=0.01 MHz; Coaxial cylinder capacitor

CC(=O)c1ccccc1 [acetophenone] + CCCCCO
Settings | refractive index, [1] | relative permittivity, [2]
x1 = 0.1 | 1.4212 | 14.86
x1 = 0.2 | 1.4346 | 14.71
x1 = 0.3 | 1.4468 | 14.66
x1 = 0.4 | 1.4598 | 14.75
x1 = 0.501 | 1.4726 | 14.94
x1 = 0.6 | 1.4859 | 15.25
x1 = 0.7 | 1.4968 | 15.65
x1 = 0.8 | 1.5092 | 16.19
x1 = 0.9 | 1.5213 | 16.83
x1 = 1 | 1.5318 | 17.51

CCC(C)=O [butanone]
Settings | mass density [kg/m3] | refractive index | relative permittivity
[3] | 799.75 | – | –
[4] | – | 1.376 | –
[5] | – | – | 18.38

CCC(C)=O [butanone] + CC(C)CCO
x1 = 1
Settings | refractive index | relative permittivity
[1] | 1.376 | –
[2] | – | 18.38

CCC(C)=O [butanone] + CCCCCO
Settings | refractive index, [1] | relative permittivity, [2]
x1 = 0.1 | 1.4053 | 14.81
x1 = 0.2 | 1.4023 | 14.68
x1 = 0.3 | 1.3988 | 14.63
x1 = 0.4 | 1.3959 | 14.73
x1 = 0.5 | 1.393 | 14.96
x1 = 0.599 | 1.3898 | 15.35
x1 = 0.7 | 1.3859 | 15.9
x1 = 0.8 | 1.3826 | 16.56
x1 = 0.9 | 1.3796 | 17.44
x1 = 1 | 1.376 | 18.38

C1CCCCC1 [cyclohexane]
Settings | mass density [kg/m3] | refractive index | relative permittivity
[3] | 773.58 | – | –
[4] | – | 1.4234 | –
[5] | – | – | 2.02

C[S+](C)[O-] [dimethyl sulfoxide]
Settings | mass density [kg/m3] | refractive index | relative permittivity
[3] | 1096.07 | – | –
[4] | – | 1.4767 | –
[5] | – | – | 46.71

C[S+](C)[O-] [dimethyl sulfoxide] + CC(C)CCO
x1 = 1
Settings | refractive index | relative permittivity
[1] | 1.4768 | –
[2] | – | 46.71

C[S+](C)[O-] [dimethyl sulfoxide] + CCCCCO
x1 = 1
Settings | refractive index | relative permittivity
[1] | 1.4767 | –
[2] | – | 46.71

CCCCCO [pentan-1-ol]
Settings | mass density [kg/m3] | refractive index | relative permittivity
[3] | 811.1 | – | –
[4] | – | 1.4082 | –
[5] | – | – | 15.12

CCCCCO [pentan-1-ol] + CC(=O)c1ccccc1
x2 = 0
Settings | refractive index | relative permittivity
[1] | 1.4082 | –
[2] | – | 15.12

CCCCCO [pentan-1-ol] + CC(C)=O
Settings | refractive index, [1] | relative permittivity, [2]
x2 = 0 | 1.4082 | 15.12
x2 = 0.1 | 1.4049 | 14.94
x2 = 0.2 | 1.4015 | 14.91
x2 = 0.301 | 1.397 | 15.01
x2 = 0.399 | 1.3926 | 15.28
x2 = 0.5 | 1.3882 | 15.73
x2 = 0.601 | 1.3828 | 16.35
x2 = 0.701 | 1.3771 | 17.21
x2 = 0.8 | 1.3706 | 18.21
x2 = 0.9 | 1.3639 | 19.36

CCCCCO [pentan-1-ol] + CCC(C)=O
x2 = 0
Settings | refractive index | relative permittivity
[1] | 1.4082 | –
[2] | – | 15.12

CCCCCO [pentan-1-ol] + C[S+](C)[O-]
Settings | refractive index, [1] | relative permittivity, [2]
x2 = 0 | 1.4082 | 15.12
x2 = 0.099 | 1.4109 | 16.27
x2 = 0.201 | 1.4164 | 18.04
x2 = 0.3 | 1.4217 | 20.24
x2 = 0.4 | 1.427 | 22.93
x2 = 0.5 | 1.4339 | 25.94
x2 = 0.6 | 1.44 | 29.38
x2 = 0.7 | 1.4488 | 33.14
x2 = 0.8 | 1.4573 | 37.33
x2 = 0.9 | 1.4675 | 41.95
